From patent US20100216886A1, “POLYMORPHS OF N2-(1,1'-BIPHENYL-4-YLCARBONYL)-N1-[2-(4-FLUOROPHENYL)-1,1-DIMETHYLETHYL]-L-ALPHA-GLUTAMINE” (Wyeth, priority 2006, published 2010)
Values after ≈ are worked out from the molar mass of the structure shown.

What was measured:
[1] = Slurry in water at 50° C. (polymorphic transformation); type: physicochemical; conditions: slurry in water at 50° C. for 12-24 hr
Method: Powder XRD patterns comparing the starting material to polymorph pseudo Form A are shown in FIG. 34, and DSC thermograms of both batches at 50° C. are shown in FIG. 35.

[2] = Solubility in water and 2% Tw80 of samples used in toxicological formulation assessments; type: physicochemical
Description: Table 6 summarizes various solid-state properties of samples used in toxicological formulation assessments.

[3] = Polymorphic conversion study in aqueous media (2% Tween 80, water); type: physicochemical
Description: Polymorphic conversion of Form A to Form B was not observed with Sample D in 2% Tween 80 or water.
Polymorph pseudo Form A was obtained from a scaled up preparation of polymorph Form A (Sample E).
The polymorphic conversion appeared to be slower in water than in the 2% Tween suspension, probably due to the lower solubility in water.
DSC data also supported this observation (FIG. 11).

Solid state stability [4] = type: physicochemical
Method: Sample F containing polymorph Form B was further investigated at 40° C./75% RH using open and closed vials for 3 months. […] Therefore, the monohydrate needs to be stored in hermetically sealed containers in order to prevent conversion to the sesquihydrate.

[5] = Thermal stress of polymorph Form B (vacuum drying, oven); type: physicochemical
Method: Polymorph Form B (Sample F) was stressed with vacuum drying at 40° C.

physchem = conditions: aqueous buffer, thermodynamic from solid, Solubility at pH<4 (below HPLC detection limit)
Method: The pH solubility profile was generated first with Sample D containing polymorph Form A, and then with Sample F containing polymorph Form B, in HCl/NaOH solutions. After 24 hour equilibration, suspensions were centrifuged and the supernatants assayed by HPLC.
The solubility data was analyzed as a function of pH using the Henderson-Hasselbach equation:
Solubility=S0·[10^(PH-pKa)+1],
where S0 is the intrinsic solubility of the free acid.

Solid state stability [6] = type: physicochemical; conditions: 1-month storage at 40° C./75% RH
[7] = Dynamic Vapor Sorption (DVS) analysis; type: physicochemical; conditions: room temperature, 6-hour equilibration period
Description: Sample F was subject to Dynamic Vapor Sorption (DVS) analysis at room temperature. The sample was first analyzed by Karl Fischer (KF) titration containing initial moisture content of 3.7% for the monohydrate form. RH cycling started at 50% relative humidity (RH) to 100% RH and down to 0% RH and then back up to 100% RH. A 3-hour/step equilibration period was found insufficient, so the run was repeated with a 6-hour period, which was still not sufficient.
(§1) As a result, an equilibrium moisture study using desiccators containing saturated salt solutions for humidity control was performed. Sample F was incubated at 0%, 15%, 31%, 66%, 87%, and 100% RH in room temperature for up to 20 days. Samples were periodically assayed by KF titration to give the kinetic profiles. XRD analysis was performed at the end of 20 days. The data is summarized in Table 8 with kinetic and equilibrium data plotted in FIGS. 18 and 19.

[8] = Equilibrium moisture study in desiccators with saturated salt solutions (KF, XRD); type: physicochemical; conditions: for RH range at which the form is present by XRD: Sample F incubated at room temperature, 20 days; for Moisture (%) 1-day / Moisture (%) 3-day / Moisture (%) 7-day / Moisture (%) 20-day / XRD Polymorph / Moisture (%) 4-day: room temperature; for XRD Polymorph: end of 20 days
Method: as §1, with “Sample F was incubated at 0%, 15%, 31%, 66%, 87%, and 100% RH in room temperature for up to 20 days.” left out

[9] = vacuum drying at 40° C., 36 hours

CC(C)(Cc1ccc(F)cc1)NC(=O)[C@H](CCC(=O)O)NC(=O)c1ccc(-c2ccccc2)cc1 [Sample E, N^2-(1,1′-biphenyl-4-ylcarbonyl)-N^1-[2-(4-fluorophenyl)-1,1-dimethylethyl]-L-α-glutamine]
Change of powder XRD pattern or melting point / polymorphic transformation [1]: transformed to a lower melting point polymorph form
Solubility, 2% Tw80 [2]: 330 µg/mL (≈ 692 µM)
pH of 2% Tw80 solubility sample [2]: 5.6
Polymorphic conversion / Polymorph Form after stirring ([3]; suspension 100 mg/mL in 2% Tween 80, ambient conditions, about 0.5 hr): transformation of pseudo Form A to Form B
Polymorphic conversion / Polymorph Form after stirring ([3]; suspension 100 mg/mL in water, overnight (~18 hr), ambient conditions): transformation of pseudo Form A to Form B

CC(C)(Cc1ccc(F)cc1)NC(=O)[C@H](CCC(=O)O)NC(=O)c1ccc(-c2ccccc2)cc1 [Sample F, N^2-(1,1′-biphenyl-4-ylcarbonyl)-N^1-[2-(4-fluorophenyl)-1,1-dimethylethyl]-L-α-glutamine]
Chemical stability, solid state (Solid state stability [4]; 40° C./75% RH, open and closed vials, 3 months): chemically stable
Conversion of monohydrate to anhydrate ([5]; 100° C. oven, 23 hours): convert completely to the anhydrate
Conversion of monohydrate to anhydrate [5, 9]: did not convert to the anhydrate
Water retained [5, 9]: 2.95%
Solubility, 2% Tw80 [2]: 217 µg/mL (≈ 455 µM)
pH of 2% Tw80 solubility sample [2]: 5.9
Solubility, Water ([2]; water): 99 µg/mL (≈ 208 µM)
pH of water solubility sample ([2]; water): 7.6
solubility at 24 h (physchem): < 0.011 µg/mL
Polymorphic conversion (DSC and XRD) (Solid state stability [6]): polymorphic conversion from Form B to Form C
Water content (Solid state stability [6]): 5.4%

CC(C)(Cc1ccc(F)cc1)NC(=O)[C@H](CCC(=O)O)NC(=O)c1ccc(-c2ccccc2)cc1 [Form C, N^2-(1,1′-biphenyl-4-ylcarbonyl)-N^1-[2-(4-fluorophenyl)-1,1-dimethylethyl]-L-α-glutamine]
RH range in which the form is stable (DVS) [7]: 30-100 % RH
RH range at which the form is present by XRD ([8]; listed as sesquihydrate): 66-100 % RH

CC(C)(Cc1ccc(F)cc1)NC(=O)[C@H](CCC(=O)O)NC(=O)c1ccc(-c2ccccc2)cc1 [Form B, N^2-(1,1′-biphenyl-4-ylcarbonyl)-N^1-[2-(4-fluorophenyl)-1,1-dimethylethyl]-L-α-glutamine]
HPLC Impurity (%) (Solid state stability [4]; 40 C./75% RH Closed, 4 wk): 0.34%
KF (%) (Solid state stability [4]; 40 C./75% RH Closed, 4 wk): 5.35%
XRD Polymorph (Solid state stability [4]; 40 C./75% RH Closed, 4 wk): Form C Pattern C
HPLC Impurity (%) (Solid state stability [4]; 40 C./75% RH Closed, 8 wk): 0.41%
KF (%) (Solid state stability [4]; 40 C./75% RH Closed, 8 wk): 5.79%
XRD Polymorph (Solid state stability [4]; 40 C./75% RH Closed, 8 wk): Form C Pattern C
HPLC Impurity (%) (Solid state stability [4]; 40 C./75% RH Open, 4 wk): 0.36%
KF (%) (Solid state stability [4]; 40 C./75% RH Open, 4 wk): 5.34%
XRD Polymorph (Solid state stability [4]; 40 C./75% RH Open, 4 wk): Form C Pattern C
HPLC Impurity (%) (Solid state stability [4]; 40 C./75% RH Open, 8 wk): 0.49%
KF (%) (Solid state stability [4]; 40 C./75% RH Open, 8 wk): 5.53%
XRD Polymorph (Solid state stability [4]; 40 C./75% RH Open, 8 wk): Form C Pattern C
Duration of sufficient heat stability (Solid state stability [4]; 40° C./75% RH): at least 3 months
HPLC Impurity (%) (Solid state stability [4]; Initial, time 0): 0.30%
KF (%) (Solid state stability [4]; Initial, time 0): 3.82%
XRD Polymorph (Solid state stability [4]; Initial, time 0): Form B Pattern B
RH range in which the form is stable (DVS) [7]: 0-50 % RH
Moisture (%) 1-day ([8]; 0% RH): 3.48%
Moisture (%) 3-day ([8]; 0% RH): 3.55%
Moisture (%) 7-day ([8]; 0% RH): 3.57%
Moisture (%) 20-day ([8]; 0% RH): 2.78%
XRD Polymorph ([8]; 0% RH): Pattern B, Form B
Moisture (%) 1-day ([8]; 15% RH): 3.97%
Moisture (%) 4-day ([8]; 15% RH): 3.99%
Moisture (%) 7-day ([8]; 15% RH): 3.74%
Moisture (%) 20-day ([8]; 15% RH): 3.79%
XRD Polymorph ([8]; 15% RH): Pattern B, Form B
Moisture (%) 1-day ([8]; 31% RH): 3.61%
Moisture (%) 4-day ([8]; 31% RH): 5.01%
Moisture (%) 7-day ([8]; 31% RH): 3.93%
Moisture (%) 20-day ([8]; 31% RH): 3.79%
XRD Polymorph ([8]; 31% RH): Pattern B, Form B
Moisture (%) 1-day ([8]; 47% RH): 3.81%
Moisture (%) 3-day ([8]; 47% RH): 3.73%
Moisture (%) 7-day ([8]; 47% RH): 4.00%
Moisture (%) 20-day ([8]; 47% RH): 4.19%
XRD Polymorph ([8]; 47% RH): Pattern B, Form B
Moisture (%) 1-day ([8]; 66% RH): 5.12%
Moisture (%) 4-day ([8]; 66% RH): 5.28%
Moisture (%) 7-day ([8]; 66% RH): 5.34%
Moisture (%) 20-day ([8]; 66% RH): 5.1%
XRD Polymorph ([8]; 66% RH): Pattern C, Form C
Moisture (%) 1-day ([8]; 84% RH): 5.55%
Moisture (%) 3-day ([8]; 84% RH): 5.43%
Moisture (%) 7-day ([8]; 84% RH): 5.55%
Moisture (%) 20-day ([8]; 84% RH): 5.71%
XRD Polymorph ([8]; 84% RH): Pattern C, Form C
Moisture (%) 1-day ([8]; 100% RH): 5.55%
Moisture (%) 4-day ([8]; 100% RH): 8.08%
Moisture (%) 7-day ([8]; 100% RH): 6.14%
Moisture (%) 20-day ([8]; 100% RH): 6.22%
XRD Polymorph ([8]; 100% RH): Pattern C, Form C
RH range at which the form is present by XRD ([8]; listed as monohydrate): 0-47 % RH
Moisture (%) T = 0 ([8]; initial, KF titration): 3.82%
